Reference: patent US10406207B2, “Peptide conjugates of GLP-1 receptor agonists and gastrin and their use” (priority 2010, dated 2019)
Read-outs that look alike come from different tables or passages of the source.

How the values were obtained:
human GLP-1 R = biological target: T1, human GLP-1 R (Homo sapiens, UniProt P43220); assay: Human GLP-1 receptor efficacy assay (cAMP induction, FlashPlate); format: cell-based; details: read-out: hGLP-1 R EC50
T1 construct: expressed in transfected cells
Description: On the day of analysis, growth medium was removed and the cells were washed once with 200 μl Tyrode buffer [Tyrode's Salts (9.6 g/l), 10 mM HEPES, pH 7.4]. […] The reaction was stopped by addition of 25 μl 0.5 M HCl and incubated on ice for 60 min.

human CCK-B R = biological target: T2, human CCK-B R (Homo sapiens, UniProt P32239); assay: Human CCK-B receptor efficacy assay (AlphaScreen SureFire p-ERK); format: cell-based; details: read-out: hCCK-B R EC50
T2 construct: expressed in transfected cells
T2 sequence (P32239 1-447): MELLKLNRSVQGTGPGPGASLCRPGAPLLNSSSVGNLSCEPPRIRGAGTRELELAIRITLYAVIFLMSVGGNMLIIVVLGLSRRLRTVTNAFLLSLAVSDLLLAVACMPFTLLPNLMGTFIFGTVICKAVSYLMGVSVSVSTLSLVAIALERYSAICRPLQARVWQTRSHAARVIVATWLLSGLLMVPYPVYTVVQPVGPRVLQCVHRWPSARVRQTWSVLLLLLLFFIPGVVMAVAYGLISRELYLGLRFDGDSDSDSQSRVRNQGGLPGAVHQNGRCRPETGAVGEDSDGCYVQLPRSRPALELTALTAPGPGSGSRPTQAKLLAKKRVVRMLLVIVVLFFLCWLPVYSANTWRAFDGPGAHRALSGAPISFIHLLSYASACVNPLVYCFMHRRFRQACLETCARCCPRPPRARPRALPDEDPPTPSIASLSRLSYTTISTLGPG

T1 sequence (P43220 24-463): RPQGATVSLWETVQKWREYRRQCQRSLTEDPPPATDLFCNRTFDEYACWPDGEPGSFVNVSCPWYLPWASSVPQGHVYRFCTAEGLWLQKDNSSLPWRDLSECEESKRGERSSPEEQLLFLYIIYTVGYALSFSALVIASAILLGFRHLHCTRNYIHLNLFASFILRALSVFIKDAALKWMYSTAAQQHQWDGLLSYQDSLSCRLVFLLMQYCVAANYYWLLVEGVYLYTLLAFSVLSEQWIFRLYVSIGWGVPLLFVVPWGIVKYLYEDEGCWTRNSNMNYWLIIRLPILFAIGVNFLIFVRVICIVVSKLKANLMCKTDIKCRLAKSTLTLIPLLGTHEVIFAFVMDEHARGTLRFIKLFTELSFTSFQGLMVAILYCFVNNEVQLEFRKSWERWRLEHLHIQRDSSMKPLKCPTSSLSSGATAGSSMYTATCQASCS

CC[C@H](C)[C@H](NC(=O)[C@H](Cc1ccccc1)NC(=O)[C@H](CC(C)C)NC(=O)[C@H](CCCNC(=N)N)NC(=O)[C@@H](NC(=O)[C@H](C)NC(=O)[C@H](CCC(=O)O)NC(=O)[C@H](CCC(=O)O)NC(=O)[C@H](CCC(=O)O)NC(=O)[C@H](CCSC)NC(=O)[C@H](CCC(N)=O)NC(=O)[C@H](CCCCN)NC(=O)[C@H](CO)NC(=O)[C@H](CC(C)C)NC(=O)[C@H](CC(=O)O)NC(=O)[C@H](CO)NC(=O)[C@@H](NC(=O)[C@H](Cc1ccccc1)NC(=O)[C@@H](NC(=O)CNC(=O)[C@H](CCC(=O)O)NC(=O)CNC(=O)[C@@H](N)Cc1c[nH]cn1)[C@@H](C)O)[C@@H](C)O)C(C)C)C(=O)N[C@@H](CCC(=O)O)C(=O)N[C@@H](Cc1ccccc1)C(=O)N[C@@H](CC(C)C)C(=O)N[C@@H](CCCCN)C(=O)N[C@@H](CC(N)=O)C(=O)NCCOCCOCC(=O)NCCOCCOCC(=O)N[C@@H](Cc1ccc(O)cc1)C(=O)NCC(=O)N[C@@H](Cc1c[nH]c2ccccc12)C(=O)N[C@@H](CC(C)C)C(=O)N[C@@H](CC(=O)O)C(=O)N[C@@H](Cc1ccccc1)C(N)=O [Compound 63, [Phe25]Exendin-4(1-28)-Peg3-Peg3-[Leu4]Gastrin6]
EC50 (human GLP-1 R; Table 2): 0.041 nM | EC50 (human CCK-B R; Table 2): 8.5 nM

CC[C@H](C)[C@H](NC(=O)[C@H](Cc1ccccc1)NC(=O)[C@H](CC(C)C)NC(=O)[C@H](CCCNC(=N)N)NC(=O)[C@@H](NC(=O)[C@H](C)NC(=O)[C@H](CCC(=O)O)NC(=O)[C@H](CCC(=O)O)NC(=O)[C@H](CCC(=O)O)NC(=O)[C@H](CC(C)C)NC(=O)[C@H](Cc1ccc(O)cc1)NC(=O)[C@H](CCCCN)NC(=O)[C@H](CO)NC(=O)[C@H](CC(C)C)NC(=O)[C@H](CCC(=O)O)NC(=O)[C@H](CO)NC(=O)[C@@H](NC(=O)[C@H](Cc1ccccc1)NC(=O)[C@@H](NC(=O)CNC(=O)[C@H](CCC(=O)O)NC(=O)CNC(=O)[C@@H](N)Cc1c[nH]cn1)[C@@H](C)O)[C@@H](C)O)C(C)C)C(=O)N[C@@H](CCC(=O)O)C(=O)N[C@@H](Cc1ccccc1)C(=O)N[C@@H](CC(C)C)C(=O)N[C@@H](CCCCN)C(=O)NCCOCCOCC(=O)N[C@@H](Cc1ccc(O)cc1)C(=O)NCC(=O)N[C@@H](Cc1c[nH]c2ccccc12)C(=O)N[C@@H](CC(C)C)C(=O)N[C@@H](CC(=O)O)C(=O)N[C@@H](Cc1ccccc1)C(N)=O [Compound 102, [Glu9,Leu14,Phe25,Tyr13]Exendin-4(1-27)-Peg3-[Leu4]Gastrin6]
EC50 (human GLP-1 R; Table 2): 0.091 nM | EC50 (human CCK-B R; Table 2): 54 nM

CC[C@H](C)[C@H](NC(=O)[C@H](Cc1ccccc1)NC(=O)[C@H](CCC(=O)O)NC(=O)[C@H](CCCCN)NC(=O)[C@H](C)NC(=O)[C@H](C)NC(=O)[C@H](CCC(N)=O)NC(=O)CNC(=O)[C@H](CCC(=O)O)NC(=O)[C@H](CC(C)C)NC(=O)[C@H](Cc1ccc(O)cc1)NC(=O)[C@H](CO)NC(=O)[C@H](CO)NC(=O)[C@@H](NC(=O)[C@H](CC(=O)O)NC(=O)[C@H](CO)NC(=O)[C@@H](NC(=O)[C@H](Cc1ccccc1)NC(=O)[C@@H](NC(=O)CNC(=O)[C@H](CCC(=O)O)NC(=O)C(C)(C)NC(=O)[C@@H](N)Cc1c[nH]cn1)[C@@H](C)O)[C@@H](C)O)C(C)C)C(=O)N[C@@H](C)C(=O)N[C@@H](Cc1c[nH]c2ccccc12)C(=O)N[C@@H](CC(C)C)C(=O)N[C@H](C(=O)N[C@@H](CCCNC(=N)N)C(=O)NCC(=O)N[C@@H](CCCNC(=N)N)C(=O)NCC(=O)NCCOCCOCC(=O)NCCOCCOCC(=O)N[C@@H](Cc1ccc(O)cc1)C(=O)NCC(=O)N[C@@H](Cc1c[nH]c2ccccc12)C(=O)N[C@@H](CC(C)C)C(=O)N[C@@H](CC(=O)O)C(=O)N[C@@H](Cc1ccccc1)C(N)=O)C(C)C [Compound 112, [Aib8,Arg34]GLP-1(7-37)-Peg3-Peg3-[Leu4]Gastrin6]
EC50 (human GLP-1 R; Table 3): 0.043 nM | EC50 (human CCK-B R; Table 3): 42 nM

H-HGEGTFTSELSKYLEEEAVRLFIEFLKWLDF-NH2 [Compound 96, [Glu9,Leu14,Phe25,Tyr13]Exendin-4(1-27)-[Leu2]Gastrin4]
EC50 (human GLP-1 R; Table 2): 1.2 nM | EC50 (human CCK-B R; Table 2): 211 nM
